Data: publication PMC8273889, “Exploiting Electrode Nanoconfinement to Investigate the Catalytic Properties of Isocitrate Dehydrogenase (IDH1) and a Cancer-Associated Variant” (The Journal of Physical Chemistry Letters, 2021)

Columns and labels:
Assay type in all cases: biochemical
[1] = target: T1, IDH1 (isocitrate dehydrogenase 1) (Homo sapiens, UniProt O75874); test: electrochemical turnover (cyclic voltammetry) with nanoconfined purified enzyme
T1 construct: homodimeric (2 × 47 kDa)

[2] = target: T1, IDH1 (isocitrate dehydrogenase 1); test: bidirectional cyclic voltammetry of 2OG/isocitrate interconversion with CO2 supplied by carbonic anhydrase
[3] = target: T2, IDH1 R132H (isocitrate dehydrogenase 1) (Homo sapiens, UniProt O75874, R132H); test: electrochemical turnover (cyclic voltammetry) with nanoconfined purified enzyme
T2 construct: homodimeric (2 × 47 kDa)
T2 sequence (O75874 2-414 R132H): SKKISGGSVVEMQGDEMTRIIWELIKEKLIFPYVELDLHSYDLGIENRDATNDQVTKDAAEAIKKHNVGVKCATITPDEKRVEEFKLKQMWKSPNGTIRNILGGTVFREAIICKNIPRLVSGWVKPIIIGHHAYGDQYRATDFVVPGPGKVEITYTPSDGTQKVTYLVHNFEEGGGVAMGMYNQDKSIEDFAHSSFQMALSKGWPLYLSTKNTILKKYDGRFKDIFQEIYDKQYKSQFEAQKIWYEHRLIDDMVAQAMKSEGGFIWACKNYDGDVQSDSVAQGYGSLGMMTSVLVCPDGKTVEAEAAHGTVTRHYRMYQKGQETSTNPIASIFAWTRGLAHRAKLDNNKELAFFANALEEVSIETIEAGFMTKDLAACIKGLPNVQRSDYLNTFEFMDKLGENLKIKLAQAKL

T1 sequence (O75874 2-414): as the sequence (O75874 2-414 R132H) above, with H131R counted along it

O=C(O)CC(C(=O)O)C(O)C(=O)O (stereo not drawn) [isocitrate]
electrochemical turnover (cyclic voltammetry) with nanoconfined purified enzyme [1]: IDH1 (Figure 1A, B) is an excellent catalyst for isocitrate oxidation

O=C(O)CCC(=O)C(=O)O [2OG, 2-oxoglutarate]
bidirectional cyclic voltammetry of 2OG/isocitrate interconversion with CO2 supp [2]: Cyclic voltammetry measuring bidirectionality of IDH1-catalyzed 2OG/isocitrate interconversion at different 2OG/isocitrate ratios
electrochemical turnover (cyclic voltammetry) with nanoconfined purified enzyme [3]: R132H-catalyzed 2OG reduction (Figure 1C, D) is much slower, manifesting low currents
